Reference: patent US20040266623A1, “SYNERGISTIC QUINCLORAC HERBICIDAL COMPOSITIONS” (priority 2003, published 2004)

How the values were obtained:
Assay in all cases: Greenhouse pot test, postemergent spray, visual control rating converted to percent control
Format in all cases: in vivo
dandelion = tested on: dandelion
Experimental: (§1) Pots of crabgrass, dandelion, white clover, and plantain grown in greenhouse soiless growth media were sprayed with a greenhouse pot sprayer at 43.46 gallons of spray solution/acre and allowed to stand in the greenhouse. Visual observation of the effects made by the herbicidal compositions on the plants in the test pots was recorded for control of crabgrass, dandelion, clover and plantain at 24 hours after treatment (HAT), 48 hours after treatment (HAT), 72 hours after treatment (HAT), 7 days after treatment (DAT), 14 days after treatment (DAT) and 21 days after treatment (DAT). A control rating scale of 1 to 9 was used to record the visual observation of the effect of the herbicidal composition on the plants over the time period of the tests. 1=no control, and 9=death of plant, with intervening numbers representing successive degrees of observed effectiveness of the herbicidal composition over time. The 1-9 control rating scale was converted to percent control in the test data charts that follow.
(§2) The test protocol of S. R. Colby as set out in his article entitled “Calculating Synergistic and Antagonistic Responses of Herbicide Compositions,” received for publication Apr. 11, 1966, Contribution No. 3796 and Scientific Article No. 1271 of the Maryland Agricultural Experiment Station, Department pf Agronomy, University of Maryland was followed to evaluate the synergistic properties of the combination of quinclorac plus a herbicidal protox inhibitor, and a combination of quinclorac, plus a herbicidal protox inhibitor plus a herbicidal auxinic agent as compared with the individual herbicides, using Colby's formulas E=X+Y−XY/100 for a two herbicide combination, where E=the expected percent of inhibition of growth by herbicides, X=the percent inhibition of growth by herbicide A at p lb/A, and Y=the percent inhibition of growth by herbicide B at q lb/A, for a given combination of two herbicides. Colby's formula E=X+Y+Z−(XY+XZ+YZ)/100+XYZ/10,000, was used for the three-way herbicide combination evaluation, where E, X and Y are the same as in the two herbicide formula and Z=the percent inhibition of growth by the third herbicide.

crabgrass = tested on: crabgrass
Experimental: as §1, §2

white clover = tested on: white clover
Experimental: as §1, §2

Cc1nn(-c2cc(NS(C)(=O)=O)c(Cl)cc2Cl)c(=O)n1C(F)F [Sulfentrazone, reference compound]
% Control Dandelion (dandelion; Test 2, 7 DAT, 0.02 lbs/A): 88.9% | Control (1-9) Dandelion (dandelion; Test 2, 7 DAT, 0.02 lbs/A): 8 | % Control Dandelion (dandelion; Test 2, 7 DAT, 0.03 lbs/A): 88.9% | Control (1-9) Dandelion (dandelion; Test 2, 7 DAT, 0.03 lbs/A): 8 | % Control Dandelion (dandelion; Test 2, 14 DAT, 0.02 lbs/A): 88.9% | Control (1-9) Dandelion (dandelion; Test 2, 14 DAT, 0.02 lbs/A): 8 | % Control Dandelion (dandelion; Test 2, 14 DAT, 0.03 lbs/A): 88.9% | Control (1-9) Dandelion (dandelion; Test 2, 14 DAT, 0.03 lbs/A): 8 | % Control Dandelion (dandelion; Test 2, 24 HAT, 0.02 lbs/A): 22.2% | Control (1-9) Dandelion (dandelion; Test 2, 24 HAT, 0.02 lbs/A): 2 | % Control Dandelion (dandelion; Test 2, 24 HAT, 0.03 lbs/A): 22.2% | Control (1-9) Dandelion (dandelion; Test 2, 24 HAT, 0.03 lbs/A): 2 | % Control Dandelion (dandelion; Test 2, 72 HAT, 0.02 lbs/A): 44.4% | Control (1-9) Dandelion (dandelion; Test 2, 72 HAT, 0.02 lbs/A): 4 | % Control Dandelion (dandelion; Test 2, 72 HAT, 0.03 lbs/A): 44.4% | Control (1-9) Dandelion (dandelion; Test 2, 72 HAT, 0.03 lbs/A): 4 | % Control Crabgrass (crabgrass; Test 2, 7 DAT, 0.02 lbs/A): 22.2% | Control (1-9) Crabgrass (crabgrass; Test 2, 7 DAT, 0.02 lbs/A): 2 | % Control Crabgrass (crabgrass; Test 2, 7 DAT, 0.03 lbs/A): 22.2% | Control (1-9) Crabgrass (crabgrass; Test 2, 7 DAT, 0.03 lbs/A): 2 | % Control Crabgrass (crabgrass; Test 2, 14 DAT, 0.02 lbs/A): 22.2% | Control (1-9) Crabgrass (crabgrass; Test 2, 14 DAT, 0.02 lbs/A): 2 | % Control Crabgrass (crabgrass; Test 2, 14 DAT, 0.03 lbs/A): 22.2% | Control (1-9) Crabgrass (crabgrass; Test 2, 14 DAT, 0.03 lbs/A): 2 | % Control Crabgrass (crabgrass; Test 2, 24 HAT, 0.02 lbs/A): 33.3% | Control (1-9) Crabgrass (crabgrass; Test 2, 24 HAT, 0.02 lbs/A): 3 | % Control Crabgrass (crabgrass; Test 2, 24 HAT, 0.03 lbs/A): 44.4% | Control (1-9) Crabgrass (crabgrass; Test 2, 24 HAT, 0.03 lbs/A): 4 | % Control Crabgrass (crabgrass; Test 2, 72 HAT, 0.02 lbs/A): 33.3% | Control (1-9) Crabgrass (crabgrass; Test 2, 72 HAT, 0.02 lbs/A): 3 | % Control Crabgrass (crabgrass; Test 2, 72 HAT, 0.03 lbs/A): 33.3% | Control (1-9) Crabgrass (crabgrass; Test 2, 72 HAT, 0.03 lbs/A): 3 | % Control Clover (white clover; Test 2, 7 DAT, 0.02 lbs/A): 77.8% | Control (1-9) Clover (white clover; Test 2, 7 DAT, 0.02 lbs/A): 7 | % Control Clover (white clover; Test 2, 7 DAT, 0.03 lbs/A): 55.6% | Control (1-9) Clover (white clover; Test 2, 7 DAT, 0.03 lbs/A): 5 | % Control Clover (white clover; Test 2, 14 DAT, 0.02 lbs/A): 77.8% | Control (1-9) Clover (white clover; Test 2, 14 DAT, 0.02 lbs/A): 7 | % Control Clover (white clover; Test 2, 14 DAT, 0.03 lbs/A): 66.7% | Control (1-9) Clover (white clover; Test 2, 14 DAT, 0.03 lbs/A): 6 | % Control Clover (white clover; Test 2, 24 HAT, 0.02 lbs/A): 22.2% | Control (1-9) Clover (white clover; Test 2, 24 HAT, 0.02 lbs/A): 2 | % Control Clover (white clover; Test 2, 24 HAT, 0.03 lbs/A): 22.2% | Control (1-9) Clover (white clover; Test 2, 24 HAT, 0.03 lbs/A): 2 | % Control Clover (white clover; Test 2, 72 HAT, 0.02 lbs/A): 33.3% | Control (1-9) Clover (white clover; Test 2, 72 HAT, 0.02 lbs/A): 3 | % Control Clover (white clover; Test 2, 72 HAT, 0.03 lbs/A): 22.2% | Control (1-9) Clover (white clover; Test 2, 72 HAT, 0.03 lbs/A): 2

CC(C)CCCCCOC(=O)COc1ccc(Cl)cc1Cl [2,4-D IOE]
% Control Dandelion (dandelion; Test 1, 7 DAT, 0.70 lbs/A): 66.7% | Control (1-9) Dandelion (dandelion; Test 1, 7 DAT, 0.70 lbs/A): 6 | % Control Dandelion (dandelion; Test 1, 14 DAT, 0.70 lbs/A): 100.0% | Control (1-9) Dandelion (dandelion; Test 1, 14 DAT, 0.70 lbs/A): 9 | % Control Dandelion (dandelion; Test 1, 24 HAT, 0.70 lbs/A): 33.3% | Control (1-9) Dandelion (dandelion; Test 1, 24 HAT, 0.70 lbs/A): 3 | % Control Dandelion (dandelion; Test 1, 48 HAT, 0.70 lbs/A): 44.4% | Control (1-9) Dandelion (dandelion; Test 1, 48 HAT, 0.70 lbs/A): 4 | % Control Dandelion (dandelion; Test 2, 7 DAT, 0.70 lbs/A): 88.9% | Control (1-9) Dandelion (dandelion; Test 2, 7 DAT, 0.70 lbs/A): 8 | % Control Dandelion (dandelion; Test 2, 14 DAT, 0.70 lbs/A): 100.0% | Control (1-9) Dandelion (dandelion; Test 2, 14 DAT, 0.70 lbs/A): 9 | % Control Dandelion (dandelion; Test 2, 24 HAT, 0.70 lbs/A): 33.3% | Control (1-9) Dandelion (dandelion; Test 2, 24 HAT, 0.70 lbs/A): 3 | % Control Dandelion (dandelion; Test 2, 72 HAT, 0.70 lbs/A): 66.7% | Control (1-9) Dandelion (dandelion; Test 2, 72 HAT, 0.70 lbs/A): 6 | % Control Crabgrass (crabgrass; Test 1, 7 DAT, 0.70 lbs/A): 44.4% | Control (1-9) Crabgrass (crabgrass; Test 1, 7 DAT, 0.70 lbs/A): 4 | % Control Crabgrass (crabgrass; Test 1, 14 DAT, 0.70 lbs/A): 33.3% | Control (1-9) Crabgrass (crabgrass; Test 1, 14 DAT, 0.70 lbs/A): 3 | % Control Crabgrass (crabgrass; Test 1, 24 HAT, 0.70 lbs/A): 22.2% | Control (1-9) Crabgrass (crabgrass; Test 1, 24 HAT, 0.70 lbs/A): 2 | % Control Crabgrass (crabgrass; Test 1, 48 HAT, 0.70 lbs/A): 44.4% | Control (1-9) Crabgrass (crabgrass; Test 1, 48 HAT, 0.70 lbs/A): 4 | % Control Crabgrass (crabgrass; Test 2, 7 DAT, 0.70 lbs/A): 22.2% | Control (1-9) Crabgrass (crabgrass; Test 2, 7 DAT, 0.70 lbs/A): 2 | % Control Crabgrass (crabgrass; Test 2, 14 DAT, 0.70 lbs/A): 22.2% | Control (1-9) Crabgrass (crabgrass; Test 2, 14 DAT, 0.70 lbs/A): 2 | % Control Crabgrass (crabgrass; Test 2, 24 HAT, 0.70 lbs/A): 33.3% | Control (1-9) Crabgrass (crabgrass; Test 2, 24 HAT, 0.70 lbs/A): 3 | % Control Crabgrass (crabgrass; Test 2, 72 HAT, 0.70 lbs/A): 66.7% | Control (1-9) Crabgrass (crabgrass; Test 2, 72 HAT, 0.70 lbs/A): 6 | % Control Clover (white clover; Test 1, 7 DAT, 0.70 lbs/A): 44.4% | Control (1-9) Clover (white clover; Test 1, 7 DAT, 0.70 lbs/A): 4 | % Control Clover (white clover; Test 1, 14 DAT, 0.70 lbs/A): 88.9% | Control (1-9) Clover (white clover; Test 1, 14 DAT, 0.70 lbs/A): 8 | % Control Clover (white clover; Test 1, 24 HAT, 0.70 lbs/A): 11.1% | Control (1-9) Clover (white clover; Test 1, 24 HAT, 0.70 lbs/A): 1 | % Control Clover (white clover; Test 1, 48 HAT, 0.70 lbs/A): 44.4% | Control (1-9) Clover (white clover; Test 1, 48 HAT, 0.70 lbs/A): 4 | % Control Clover (white clover; Test 2, 7 DAT, 0.70 lbs/A): 66.7% | Control (1-9) Clover (white clover; Test 2, 7 DAT, 0.70 lbs/A): 6 | % Control Clover (white clover; Test 2, 14 DAT, 0.70 lbs/A): 100.0% | Control (1-9) Clover (white clover; Test 2, 14 DAT, 0.70 lbs/A): 9 | % Control Clover (white clover; Test 2, 24 HAT, 0.70 lbs/A): 33.3% | Control (1-9) Clover (white clover; Test 2, 24 HAT, 0.70 lbs/A): 3 | % Control Clover (white clover; Test 2, 72 HAT, 0.70 lbs/A): 66.7% | Control (1-9) Clover (white clover; Test 2, 72 HAT, 0.70 lbs/A): 6
